Article PMC10822893, “Selective herbicide safening in dicot plants: a case study in Arabidopsis” (Frontiers in Plant Science, 2024)

Experiments:
AtGSTU19 = molecular target: T1, AtGSTU19 (Arabidopsis thaliana, UniProt Q9ZRW8); experiment: UPLC-qTOF MS initial velocities, Michaelis-Menten non-linear regression; type: biochemical; conditions: co-substrate glutathione; unit printed as µmol (amount, not concentration)
T1 construct: gene GSTU19
Description: UPLC-qTOF MS initial velocities, Michaelis-Menten non-linear regression on AtGSTU19

AtGSTU7 = molecular target: T2, AtGSTU7 (Arabidopsis thaliana, UniProt Q9ZW24); experiment: as above; type: biochemical; conditions: co-substrate glutathione; unit printed as µmol (amount, not concentration)
T2 construct: gene GSTU7
T2 sequence (Q9ZW24 1-227): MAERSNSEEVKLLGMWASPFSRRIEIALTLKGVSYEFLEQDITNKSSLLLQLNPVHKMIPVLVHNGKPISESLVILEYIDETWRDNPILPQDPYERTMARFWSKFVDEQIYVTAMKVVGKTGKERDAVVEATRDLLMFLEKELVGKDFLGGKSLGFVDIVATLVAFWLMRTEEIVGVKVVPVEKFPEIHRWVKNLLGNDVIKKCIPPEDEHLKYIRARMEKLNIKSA
Description: UPLC-qTOF MS initial velocities, Michaelis-Menten non-linear regression on AtGSTU7

T1 sequence (Q9ZRW8 whole entry): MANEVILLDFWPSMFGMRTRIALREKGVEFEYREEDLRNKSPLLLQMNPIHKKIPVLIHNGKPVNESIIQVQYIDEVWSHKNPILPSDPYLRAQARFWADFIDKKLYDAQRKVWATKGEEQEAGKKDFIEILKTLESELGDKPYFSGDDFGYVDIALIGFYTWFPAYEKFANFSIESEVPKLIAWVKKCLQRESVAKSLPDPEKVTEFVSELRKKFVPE

SMILES: CC(C)N(C(=O)COc1nnc(C(F)(F)F)s1)c1ccc(F)cc1 [flufenacet]
- Km (AtGSTU19): 95.08 µmol
- Km (AtGSTU7): 109.57 µmol
